Experimental data published in the NIST ThermoML archive (doi:10.1021/acs.jced.8b00807).
Numbers after ± are expanded uncertainties.

Experiment: Boiling temperature at pressure P
Details: 101.3 kPa; Liquid; Ebulliometric method (Recirculating still)

SMILES | Boiling temperature at pressure P [°C]
Cc1ccc(C)cc1 [1,4-dimethylbenzene] | 138.34 ± 0.2
COC(C)=O [methyl ethanoate] | 57.1 ± 0.2
CC(=O)OCCC(C)C [3-methylbutyl ethanoate] | 142.00 ± 0.2
CC(=O)OCC(C)C [2-methylpropyl ethanoate] | 116.40 ± 0.2
